Data from US20240360151A1 (SANOFI, priority 2023, published 2024).

Key:
[1] = test system: NF-kB pathway (TNF-α secretion by THP-1 cells); test: TNF-α secretion assay in LPS-stimulated THP-1 cells, Lumit immunoassay; type: cell-based, human; settings: Homo sapiens, THP-1, 3 h, monocytic THP-1 cells, LPS 10 ng/mL, relative IC50, 10 concentrations, geometric mean
Method in brief: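 TNF-α release was quantified directly in the cell plate by Lumit immunoassay after a 3-h, 10 ng/mL LPS trigger of compound-treated THP-1 cells (RPMI, 5% FBS). Percent inhibition versus no-compound and unstimulated controls fed a 4-parameter logistic fit over 10 concentrations, giving geometric-mean relative IC50.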

[2] = molecular target: T1, NLRP3 inflammasome (Homo sapiens, UniProt Q96P20); test: IL-1β secretion assay (NLRP3 IC50) in LPS-primed, nigericin-activated THP-1 cells, HTRF; type: cell-based; settings: monocytic THP-1 cells; LPS 10 ng/mL 3 h priming, then compound + nigericin 10 μM 2 h; relative IC50, 10 concentrations, geometric mean
T1 construct: endogenous in cells; host or cells: THP-1 monocytic cells
Method in brief: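 IL-1β in supernatant read by HTRF after 2 h co-incubation of compound (0.1% DMSO, 10 concentrations, 1:3 series) with nigericin at 10 μM final, following 3 h LPS (10 ng/mL) priming of THP-1 monocytes at 37° C. Inhibition normalised to unactivated and no-compound controls; geometric-mean relative IC50 from 4-parameter logistic model.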

T1 sequence (Q96P20 whole entry): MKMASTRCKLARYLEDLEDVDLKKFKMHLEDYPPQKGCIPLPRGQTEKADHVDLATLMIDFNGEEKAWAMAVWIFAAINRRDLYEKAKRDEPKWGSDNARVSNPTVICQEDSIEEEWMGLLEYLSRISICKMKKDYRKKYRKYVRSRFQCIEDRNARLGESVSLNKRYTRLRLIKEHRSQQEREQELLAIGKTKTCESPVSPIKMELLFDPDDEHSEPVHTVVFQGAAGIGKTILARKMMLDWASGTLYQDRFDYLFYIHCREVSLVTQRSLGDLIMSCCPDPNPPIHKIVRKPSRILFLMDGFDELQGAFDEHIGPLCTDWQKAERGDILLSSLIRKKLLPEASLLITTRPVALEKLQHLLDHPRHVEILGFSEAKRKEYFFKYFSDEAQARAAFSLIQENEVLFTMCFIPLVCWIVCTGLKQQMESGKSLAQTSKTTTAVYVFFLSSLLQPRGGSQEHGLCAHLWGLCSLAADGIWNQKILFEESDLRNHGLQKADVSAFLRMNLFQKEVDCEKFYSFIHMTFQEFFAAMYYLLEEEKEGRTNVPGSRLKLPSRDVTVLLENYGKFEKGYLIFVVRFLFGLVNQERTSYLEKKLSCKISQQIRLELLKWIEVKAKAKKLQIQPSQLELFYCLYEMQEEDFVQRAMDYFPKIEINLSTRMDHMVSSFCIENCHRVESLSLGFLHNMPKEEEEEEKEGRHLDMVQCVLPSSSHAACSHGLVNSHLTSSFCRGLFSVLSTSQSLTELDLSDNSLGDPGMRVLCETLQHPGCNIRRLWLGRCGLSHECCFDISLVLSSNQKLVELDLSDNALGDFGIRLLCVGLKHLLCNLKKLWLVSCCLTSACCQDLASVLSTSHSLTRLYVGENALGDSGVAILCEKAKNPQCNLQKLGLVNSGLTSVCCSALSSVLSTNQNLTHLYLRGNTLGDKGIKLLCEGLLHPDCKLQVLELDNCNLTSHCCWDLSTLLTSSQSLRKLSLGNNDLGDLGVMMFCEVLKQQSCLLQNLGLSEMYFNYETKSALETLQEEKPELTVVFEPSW

Structure (SMILES)	IC50 [1]	IC50 [2]
Cc1cc(C(F)(F)F)cc(O)c1-c1ccc(N2CCOC(C(C)(C)O)C2)nn1 (stereo not drawn) [Example 26, 2-[6-[2-(1-hydroxy-1-methyl-ethyl)morpholin-4-yl]pyridazin-3-yl]-3-methyl-5-(trifluoromethyl)phenol]	> 10000 nM	352 nM
Cc1cc(C(F)(F)F)cc(O)c1-c1ccc(N2CCC[C@H](CO)C2)nn1 [Example 28, 2-[6-[(3S)-3-(hydroxymethyl)-1-piperidyl]pyridazin-3-yl]-3-methyl-5-(trifluoromethyl)phenol]	> 10000 nM	109 nM
Cc1cc(C(F)(F)F)cc(O)c1-c1ccc(N2CCN(C)CC2)nn1 [Example 29, 3-methyl-2-[6-(4-methylpiperazin-1-yl)pyridazin-3-yl]-5-(trifluoromethyl)phenol]	> 10000 nM	332 nM
Cc1cc(C(F)(F)F)cc(O)c1-c1ccc(N2CC(CO)C2)nn1 [Example 30, 2-[6-[3-(hydroxymethyl)azetidin-1-yl]pyridazin-3-yl]-3-methyl-5-(trifluoromethyl)phenol]	> 10000 nM	431 nM
Cc1cc(C)c(-c2ccc(N3CCC[C@@H](N)C3)nn2)c(O)c1 [Example 31, 2-[6-[(3R)-3-amino-1-piperidyl]pyridazin-3-yl]-3,5-dimethyl-phenol; formic acid]	> 10000 nM	520 nM
COC[C@H]1CN(c2ccc(-c3c(O)cc(Cl)cc3Cl)nn2)CCO1 [Example 33, 3,5-dichloro-2-[6-[(2R)-2-(methoxymethyl)morpholin-4-yl]pyridazin-3-yl]phenol]	> 10000 nM	239 nM
OC[C@H]1CCCN(c2ccc(-c3c(O)cc(Cl)cc3Cl)nn2)C1 [Example 34, 3,5-dichloro-2-[6-[(3S)-3-(hydroxymethyl)-1-piperidyl]pyridazin-3-yl]phenol]	> 10000 nM	95 nM
COC[C@@H]1CN(c2ccc(-c3c(O)cc(Cl)cc3Cl)nn2)CCO1 [Example 35, 3,5-dichloro-2-[6-[(2S)-2-(methoxymethyl)morpholin-4-yl]pyridazin-3-yl]phenol]	> 10000 nM	501 nM
OC[C@@H]1CCCN(c2ccc(-c3c(O)cc(Cl)cc3Cl)nn2)C1 [Example 36, 3,5-dichloro-2-[6-[(3R)-3-(hydroxymethyl)-1-piperidyl]pyridazin-3-yl]phenol]	> 10000 nM	96 nM
Oc1cc(Cl)cc(Cl)c1-c1ccc(N2CCOCC2)nn1 [Example 38, 3,5-dichloro-2-(6-morpholinopyridazin-3-yl)phenol]	> 10000 nM	90 nM
CN(C)C[C@H]1CN(c2ccc(-c3c(O)cc(Cl)cc3Cl)nn2)CCO1 [Example 39, 3,5-dichloro-2-[6-[(2S)-2-[(dimethylamino)methyl]morpholin-4-yl]pyridazin-3-yl]phenol]	> 10000 nM	238 nM
CN(C)C[C@@H]1CCN(c2ccc(-c3c(O)cc(Cl)cc3Cl)nn2)C1 [Example 40, 3,5-dichloro-2-[6-[(3S)-3-[(dimethylamino)methyl]pyrrolidin-1-yl]pyridazin-3-yl]phenol]	> 10000 nM	420 nM
CN(C)C[C@H]1CCN(c2ccc(-c3c(O)cc(Cl)cc3Cl)nn2)C1 [Example 41, 3,5-dichloro-2-[6-[(3R)-3-[(dimethylamino)methyl]pyrrolidin-1-yl]pyridazin-3-yl]phenol]	> 10000 nM	252 nM
Oc1cc(Cl)cc(Cl)c1-c1ccc(N2CCC3(CC(O)C3)C2)nn1 (stereo not drawn) [Example 42, 6-[6-(2,4-dichloro-6-hydroxy-phenyl)pyridazin-3-yl]-6-azaspiro[3.4]octan-2-ol]	> 10000 nM	134 nM
Cc1cc(O)c(-c2ccc(N3CCO[C@H](CO)C3)nn2)c(F)c1 [Example 45, 3-fluoro-2-[6-[(2S)-2-(hydroxymethyl)morpholin-4-yl]pyridazin-3-yl]-5-methyl-phenol]	> 10000 nM	281 nM
Oc1cc(Cl)cc(Cl)c1-c1ccc(N2CC3(CC(O)C3)C2)nn1 [Example 46, 2-[6-(2,4-dichloro-6-hydroxy-phenyl)pyridazin-3-yl]-2-azaspiro[3.3]heptan-6-ol]	> 10000 nM	389 nM
OC[C@@H]1CN(c2ccc(-c3c(O)cccc3Cl)nn2)CCO1 [Example 48, 3-chloro-2-[6-[(2S)-2-(hydroxymethyl)morpholin-4-yl]pyridazin-3-yl]phenol]	> 10000 nM	386 nM
OC[C@@H]1CN(c2ccc(-c3c(O)cccc3C(F)(F)F)nn2)CCO1 [Example 54, 2-[6-[(2S)-2-(hydroxymethyl)morpholin-4-yl]pyridazin-3-yl]-3-(trifluoromethyl) phenol]	> 10000 nM	132 nM

Structure (SMILES)	IC50 [1]	IC50 [2]
CN1CC2(CCN(c3ccc(-c4c(O)cc(Cl)cc4Cl)nn3)CC2)C1 [Example 55, 3,5-dichloro-2-[6-(2-methyl-2,7-diazaspiro[3.5]nonan-7-yl)pyridazin-3-yl]phenol]	> 10000 nM	176 nM
Cc1cccc(O)c1-c1ccc(N2CCO[C@H](CO)C2)nn1 [Example 56, 2-[6-[(2S)-2-(hydroxymethyl)morpholin-4-yl]pyridazin-3-yl]-3-methyl-phenol]	> 10000 nM	111 nM
CC(=O)NC[C@H]1CCCN(c2ccc(-c3c(O)cc(Cl)cc3Cl)nn2)C1 [Example 57, N-[[(3R)-1-[6-(2,4-dichloro-6-hydroxy-phenyl)pyridazin-3-yl]-3-piperidyl]methyl]acetamide]	> 10000 nM	248 nM
CC(=O)NC[C@@H]1CCCN(c2ccc(-c3c(O)cc(Cl)cc3Cl)nn2)C1 [Example 58, N-[[(3S)-1-[6-(2,4-dichloro-6-hydroxy-phenyl)pyridazin-3-yl]-3-piperidyl]methyl]acetamide]	> 10000 nM	64 nM
Cc1cc(C(F)(F)F)cc(O)c1-c1ccc(N2CCCC2=O)nn1 [Example 61, 1-[6-[2-hydroxy-6-methyl-4-(trifluoromethyl)phenyl]pyridazin-3-yl]pyrrolidin-2-one]	> 10000 nM	90 nM
Cc1cc(C(F)(F)F)cc(O)c1-c1ccc(N2C[C@@H](O)CC2=O)nn1 [Example 62, (4S)-4-hydroxy-1-[6-[2-hydroxy-6-methyl-4-(trifluoromethyl)phenyl]pyridazin-3-yl]pyrrolidin-2-one]	> 10000 nM	52 nM
Cc1cc(Cl)cc(O)c1-c1ccc(N2CCO[C@H](CO)C2)nn1 [Example 63, 5-chloro-2-[6-[(2S)-2-(hydroxymethyl)morpholin-4-yl]pyridazin-3-yl]-3-methyl-phenol]	> 10000 nM	6 nM
Oc1cc(Cl)cc(Cl)c1-c1ccc(N2CC3(COC3)C2)nn1 [Example 64, 3,5-dichloro-2-[6-(2-oxa-6-azaspiro[3.3]heptan-6-yl)pyridazin-3-yl]phenol]	> 10000 nM	222 nM
Cc1cc(C)c(-c2ccc(N3CC[C@@H](CO)C3)nn2)c(O)c1 [Example 65, 2-[6-[(3R)-3-(hydroxymethyl)pyrrolidin-1-yl]pyridazin-3-yl]-3,5-dimethyl-phenol]	> 10000 nM	151 nM
Oc1cc(Cl)cc(Cl)c1-c1ccc(N2CCC3(CC2)COC3)nn1 [Example 66, 3,5-dichloro-2-[6-(2-oxa-7-azaspiro[3.5]nonan-7-yl)pyridazin-3-yl]phenol]	> 10000 nM	304 nM
Cc1cc(C)c(-c2ccc(N3CCC[C@H](O)C3)nn2)c(O)c1 [Example 67, (3S)-1-[6-(2-hydroxy-4,6-dimethyl-phenyl)pyridazin-3-yl]piperidin-3-ol]	> 10000 nM	306 nM
Cc1cc(C)c(-c2ccc(N3CCC[C@H](N)C3)nn2)c(O)c1 [Example 69, 2-[6-[(3S)-3-amino-1-piperidyl]pyridazin-3-yl]-3,5-dimethyl-phenol]	> 10000 nM	200 nM
Cc1cc(C)c(-c2ccc(N3CC[C@@H](O)C3)nn2)c(O)c1 [Example 70, (3R)-1-[6-(2-hydroxy-4,6-dimethyl-phenyl)pyridazin-3-yl]pyrrolidin-3-ol]	> 10000 nM	467 nM
Cc1cc(C)c(-c2ccc(N3CC[C@H](O)C3)nn2)c(O)c1 [Example 71, (3S)-1-[6-(2-hydroxy-4,6-dimethyl-phenyl)pyridazin-3-yl]pyrrolidin-3-ol]	> 10000 nM	270 nM
CCc1cc(N2CCO[C@H](CO)C2)nnc1-c1ccc(C)cc1O [Example 72, 2-[4-ethyl-6-[(2S)-2-(hydroxymethyl)morpholin-4-yl]pyridazin-3-yl]-5-methyl-phenol]	> 10000 nM	107 nM
CCc1cc(N2CCO[C@H](CO)C2)nnc1-c1ccc(Cl)cc1O [Example 73, 5-chloro-2-[4-ethyl-6-[(2S)-2-(hydroxymethyl)morpholin-4-yl]pyridazin-3-yl]phenol]	> 10000 nM	56 nM
Cc1ccc(-c2nnc(N3CCO[C@H](CO)C3)cc2C(C)C)c(O)c1 [Example 74, 2-[6-[(2S)-2-(hydroxymethyl)morpholin-4-yl]-4-isopropyl-pyridazin-3-yl]-5-methyl-phenol]	> 10000 nM	411 nM
CC(C)c1cc(N2CCO[C@H](CO)C2)nnc1-c1ccc(Cl)cc1O [Example 75, 5-chloro-2-[6-[(2S)-2-(hydroxymethyl)morpholin-4-yl]-4-isopropyl-pyridazin-3-yl]phenol]	9600 nM	183 nM
